Source: patent publication US6559101B2, “N- (5, 7-dimethoxy [1, 2, 4] triazolo [1, 5-a] pyrimidin-2-yl) arylsulfonamide compounds and their use as herbicides” (Dow AgroSciences LLC, priority 2000, dated 2003)

How the values were obtained:
Assay type in all cases: in vivo
[1] = test system: giant foxtail (Setaria faberi); assay: Preemergence herbicidal activity; details: 35 g/Ha; scored after 3 weeks; 0 no injury, 100 complete kill or no germination
Method: (§1) The soil matrix was contained in plastic pots with a surface area of 161 square centimeters. When required to ensure good germination and healthy plants, a fungicide treatment and/or other chemical or physical treatment was applied. A weighed amount, determined by the highest rate to be tested, of each test compound was placed in a 20 mL glass vial and was dissolved in 8 mL of a 97:3 v/v (volume/volume) mixture of acetone and dimethyl sulfoxide to obtain concentrated stock solutions. […] The stock solutions obtained were diluted with a 99.9:0.1 mixture of water and Tween® 155 surfactant (ethoxylated sorbitan fatty acid ester) to obtain application solutions of known concentration. The solutions containing the highest concentration to be tested were prepared by diluting 4 mL aliquots of the stock solution with 8.5 mL of the mixture and lower concentrations were prepared by dilution of appropriate smaller portions of the stock solution. A 2.5 mL aliquot of each solution of known concentration was sprayed evenly onto the soil of each seeded pot using a Cornwall 5.0 mL glass syringe fitted with a TeeJet TN-3 hollow cone nozzle to obtain thorough coverage of the soil in each pot. Control pots were sprayed in the same manner with the aqueous mixture. A highest application rate of 4.48 kg/ha is achieved when 50 mg of test compound is employed. The treated pots and control pots were placed in a greenhouse with an approximately 15 hr photoperiod which was maintained at about 23-29° C. during the day and 22-28° C. during the night. Nutrients and water were added on a regular basis and supplemental lighting was provided with overhead metal halide 1000 Watt lamps as necessary. The water was added by top-irrigation. After 3 weeks the condition of the test plants that germinated and grew as compared with that of the untreated plants that germinated and grew was determined visually and scored on a scale of 0 to 100 percent where 0 corresponds to no injury and 100 corresponds to complete kill or no germination.

[2] = test system: lambsquarters (Chenopodium album); assay: Preemergence herbicidal activity; details: 35 g/Ha; scored after 3 weeks; 0 no injury, 100 complete kill or no germination
Method: as §1

[3] = test system: blackgrass (Alopecurus myosuroides); assay: Preemergence herbicidal activity; details: 35 g/Ha; scored after 3 weeks; 0 no injury, 100 complete kill or no germination
Method: as §1

[4] = test system: wild oats (Avena fatua); assay: Preemergence herbicidal activity; details: 35 g/Ha; scored after 3 weeks; 0 no injury, 100 complete kill or no germination
Method: as §1

[5] = test system: wild poinsettia (Euphorbia heterophylla); assay: Preemergence herbicidal activity; details: 35 g/Ha; scored after 3 weeks; 0 no injury, 100 complete kill or no germination
Method: as §1

[6] = test system: Rox orange sorghum (Sorghum bicolor); assay: Preemergence herbicidal activity; details: 35 g/Ha; scored after 3 weeks; 0 no injury, 100 complete kill or no germination
Method: as §1

[7] = test system: barnyardgrass (Echinochloa crus-galli); assay: Preemergence herbicidal activity; details: 35 g/Ha; scored after 3 weeks; 0 no injury, 100 complete kill or no germination
Method: as §1

[8] = test system: pigweed (Amaranthus retroflexus); assay: Preemergence herbicidal activity; details: 35 g/Ha; scored after 3 weeks; 0 no injury, 100 complete kill or no germination
Method: as §1

[9] = test system: crabgrass (Digitaria sanguinalis); assay: Preemergence herbicidal activity; details: 35 g/Ha; scored after 3 weeks; 0 no injury, 100 complete kill or no germination
Method: as §1

[10] = test system: morningglory (Ipomoea hederacea); assay: Preemergence herbicidal activity; details: 35 g/Ha; scored after 3 weeks; 0 no injury, 100 complete kill or no germination
Method: as §1

[11] = test system: velvetleaf (Abutilion theophrasti); assay: Preemergence herbicidal activity; details: 35 g/Ha; scored after 3 weeks; 0 no injury, 100 complete kill or no germination
Method: as §1

[12] = test system: giant foxtail (Setaria faberi); assay: Postemergence herbicidal activity; details: scored after 2 weeks, 0 no injury, 100 complete kill
Method: (§2) Seeds of the desired test plant species were planted in Grace-Sierra MetroMix® 306 planting mixture, which typically has a pH of 6.0 to 6.8 and an organic matter content of about 30 percent, in plastic pots with a surface area of 64 square centimeters. When required to ensure good germination and healthy plants, a fungicide treatment and/or other chemical or physical treatment was applied. The plants were grown for 7-21 days in a greenhouse with an approximately 15 hr photoperiod which was maintained at about 23-29° C. during the day and 22-28° C. during the night. Nutrients and water were added on a regular basis and supplemental lighting was provided with overhead metal halide 1000 Watt lamps as necessary. The plants were employed for testing when they reached the first or second true leaf stage. A weighed amount of each test compound, determined by the highest rate to be tested, was placed in a 20 mL glass vial and was dissolved in 4 mL of a 97:3 v/v (volume/volume) mixture of acetone and dimethyl sulfoxide to obtain concentrated stock solutions. […] The concentrated stock solutions obtained were diluted with an aqueous mixture containing acetone, water, iso-propyl alcohol, dimethyl sulfoxide, Atplus 411F crop oil concentrate, and Triton X-155 surfactant (methylenebisdiamyl phenoxy polyethoxy ethanol) in a 48.5:39:10:1.5:1.0:0.02 v/v ratio to obtain spray solutions of known concentration. The solutions containing the highest concentration to be tested were prepared by diluting 2 mL aliquots of the stock solution with 13 mL of the mixture and lower concentrations were prepared by dilution of appropriate smaller portions of the stock solution. Approximately 1.5 mL aliquots of each solution of known concentration were sprayed evenly onto each of the test plant pots using a Devilbiss atomizer driven by compressed air pressure of 2 to 4 psi (140 to 280 kiloPascals) to obtain thorough coverage of each plant. Control plants were sprayed in the same manner with the aqueous mixture. In this test an application rate of 1 ppm results in the application of approximately 1 g/ha. The treated plants and control plants were placed in a greenhouse as described above and watered by sub-irrigation to prevent wash-off of the test compounds. After 2 weeks the condition of the test plants as compared with that of the untreated plants was determined visually and scored on a scale of 0 to 100 percent where 0 corresponds to no injury and 100 corresponds to complete kill.

[13] = test system: lambsquarters (Chenopodium album); assay: Postemergence herbicidal activity; details: scored after 2 weeks, 0 no injury, 100 complete kill
Method: as §2

[14] = test system: blackgrass (Alopecurus myosuroides); assay: Postemergence herbicidal activity; details: scored after 2 weeks, 0 no injury, 100 complete kill
Method: as §2

[15] = test system: wild oats (Avena fatua); assay: Postemergence herbicidal activity; details: scored after 2 weeks, 0 no injury, 100 complete kill
Method: as §2

[16] = test system: chickweed (Stellaria media); assay: Postemergence herbicidal activity; details: scored after 2 weeks, 0 no injury, 100 complete kill
Method: as §2

[17] = test system: viola (Viola tricolor); assay: Postemergence herbicidal activity; details: scored after 2 weeks, 0 no injury, 100 complete kill
Method: as §2

[18] = test system: cocklebur (Xanthium strumarium); assay: Postemergence herbicidal activity; details: scored after 2 weeks, 0 no injury, 100 complete kill
Method: as §2

[19] = test system: wild buckwheat (Polygonum convolvulus); assay: Postemergence herbicidal activity; details: scored after 2 weeks, 0 no injury, 100 complete kill
Method: as §2

[20] = test system: Rox orange sorghum (Sorghum bicolor); assay: Postemergence herbicidal activity; details: scored after 2 weeks, 0 no injury, 100 complete kill
Method: as §2

[21] = test system: pigweed (Amaranthus retroflexus); assay: Postemergence herbicidal activity; details: scored after 2 weeks, 0 no injury, 100 complete kill
Method: as §2

[22] = test system: morningglory (Ipomoea hederacea); assay: Postemergence herbicidal activity; details: scored after 2 weeks, 0 no injury, 100 complete kill
Method: as §2

[23] = test system: velvetleaf (Abutilion theophrasti); assay: Postemergence herbicidal activity; details: scored after 2 weeks, 0 no injury, 100 complete kill
Method: as §2

[24] = test system: cocklebur (Xanthium strumarium); assay: Preemergence herbicidal activity; details: 35 g/Ha; scored after 3 weeks; 0 no injury, 100 complete kill or no germination
Method: as §1

Q: With CCOc1ccc(C)cc1S(=O)(=O)Nc1nc2nc(OC)cc(OC)n2n1 [Compound 10] as the compound, how does the “Preemergence herbicidal activity SETFA” value [1] read?
A: 40%

Q: And the “Preemergence herbicidal activity CHEAL” value [2]?
A: 90%

Q: What about the “Preemergence herbicidal activity ALOMY” value [3] of the same compound?
A: 30%

Q: What about the “Preemergence herbicidal activity AVEFA” value [4] of the same compound?
A: 80%

Q: And the “Preemergence herbicidal activity EPHHL” value [5]?
A: 40%

Q: What about the “Preemergence herbicidal activity SORBI” value [6] of the same compound?
A: 100%

Q: And the “Preemergence herbicidal activity ECHCG” value [7]?
A: 80%

Q: And the “Preemergence herbicidal activity AMARE” value [8]?
A: 98%

Q: What about the “Preemergence herbicidal activity DIGSA” value [9] of the same compound?
A: 0%

Q: And the “Preemergence herbicidal activity IPOHE” value [10]?
A: 0%

Q: And the “Preemergence herbicidal activity ABUTH” value [11]?
A: 60%

Q: What about the “Postemergence herbicidal activity SETFA” value ([12]; 7.8 ppm) of the same compound?
A: 80%

Q: What about the “Postemergence herbicidal activity CHEAL” value ([13]; 7.8 ppm) of the same compound?
A: 95%

Q: And the “Postemergence herbicidal activity ALOMY” value ([14]; 7.8 ppm)?
A: 80%

Q: What about the “Postemergence herbicidal activity AVEFA” value ([15]; 7.8 ppm) of the same compound?
A: 90%

Q: What about the “Postemergence herbicidal activity STEME” value ([16]; 7.8 ppm) of the same compound?
A: 85%

Q: What about the “Postemergence herbicidal activity VIOTR” value ([17]; 7.8 ppm) of the same compound?
A: 85%

Q: And the “Postemergence herbicidal activity XANST” value ([18]; 7.8 ppm)?
A: 50%

Q: And the “Postemergence herbicidal activity POLCO” value ([19]; 7.8 ppm)?
A: 85%

Q: What about the “Postemergence herbicidal activity SORBI” value ([20]; 7.8 ppm) of the same compound?
A: 85%

Q: And the “Postemergence herbicidal activity AMARE” value ([21]; 7.8 ppm)?
A: 95%

Q: What about the “Postemergence herbicidal activity IPOHE” value ([22]; 7.8 ppm) of the same compound?
A: 20%

Q: And the “Postemergence herbicidal activity ABUTH” value ([23]; 7.8 ppm)?
A: 50%

Q: What does the source list for COc1cc(OC)n2nc(NS(=O)(=O)c3cc(C)ccc3OC)nc2n1 [Compound 6]?
A: Preemergence herbicidal activity SETFA [1]: 98%; Preemergence herbicidal activity ALOMY [3]: 100%; Preemergence herbicidal activity AVEFA [4]: 90%; Preemergence herbicidal activity EPHHL [5]: 80%; Preemergence herbicidal activity XANST [24]: 70%; Preemergence herbicidal activity SORBI [6]: 95%; Preemergence herbicidal activity ECHCG [7]: 90%; Preemergence herbicidal activity AMARE [8]: 98%; Preemergence herbicidal activity DIGSA [9]: 100%; Preemergence herbicidal activity IPOHE [10]: 50%; Preemergence herbicidal activity ABUTH [11]: 98%; Postemergence herbicidal activity SETFA ([12]; 31.3 ppm): 95%; Postemergence herbicidal activity CHEAL ([13]; 31.3 ppm): 95%; Postemergence herbicidal activity ALOMY ([14]; 31.3 ppm): 90%; Postemergence herbicidal activity AVEFA ([15]; 31.3 ppm): 95%; Postemergence herbicidal activity STEME ([16]; 31.3 ppm): 98%; Postemergence herbicidal activity VIOTR ([17]; 31.3 ppm): 90%; Postemergence herbicidal activity XANST ([18]; 31.3 ppm): 95%; Postemergence herbicidal activity POLCO ([19]; 31.3 ppm): 98%; Postemergence herbicidal activity SORBI ([20]; 31.3 ppm): 95%; Postemergence herbicidal activity AMARE ([21]; 31.3 ppm): 100%; Postemergence herbicidal activity IPOHE ([22]; 31.3 ppm): 70%; Postemergence herbicidal activity ABUTH ([23]; 31.3 ppm): 95%
